Test results reported in PubChem BioAssay (NCI).
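Cells were grown in 96-well plates and exposed to each compound for 48 hours at five concentrations; endpoints were interpolated linearly between bracketing concentrations, or set to the highest concentration if not reached. The concentration for 50% growth inhibition is given as GI50. The concentration for full growth arrest is given as TGI.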

Columns and labels:
Test in all cases: growth of human tumour cells (NCI), 48 h
EKVX NSCLC = system: EKVX NSCLC
NCI-H226 lung = system: NCI-H226 lung
M14 melanoma = system: M14 melanoma
IGROV1 ovarian = system: IGROV1 ovarian
HCC-2998 colon = system: HCC-2998 colon
SR leukemia = system: SR leukemia
SK-MEL-5 melanoma = system: SK-MEL-5 melanoma
HCT-15 colon = system: HCT-15 colon
MDA-MB-435 = system: MDA-MB-435
MOLT-4 leukemia = system: MOLT-4 leukemia
HOP-62 NSCLC = system: HOP-62 NSCLC
U251 CNS = system: U251 CNS
SW-620 colon = system: SW-620 colon
COLO 205 colon = system: COLO 205 colon
T-47D breast = system: T-47D breast
A549 NSCLC = system: A549 NSCLC
LOX IMVI melanoma = system: LOX IMVI melanoma
PC-3 prostate = system: PC-3 prostate
SN12C renal = system: SN12C renal
MDA-MB-231 breast = system: MDA-MB-231 breast
CCRF-CEM leukemia = system: CCRF-CEM leukemia
SNB-75 CNS = system: SNB-75 CNS
OVCAR-5 ovarian = system: OVCAR-5 ovarian
OVCAR-4 ovarian = system: OVCAR-4 ovarian
UACC-257 melanoma = system: UACC-257 melanoma
RXF 393 renal = system: RXF 393 renal
ACHN renal = system: ACHN renal
A498 renal = system: A498 renal
SK-OV-3 ovarian = system: SK-OV-3 ovarian
RPMI-8226 leukemia = system: RPMI-8226 leukemia
HOP-92 NSCLC = system: HOP-92 NSCLC
786-0 renal = system: 786-0 renal
UACC-62 melanoma = system: UACC-62 melanoma
MALME-3M melanoma = system: MALME-3M melanoma
OVCAR-3 ovarian = system: OVCAR-3 ovarian
SF-268 CNS = system: SF-268 CNS
CAKI-1 renal = system: CAKI-1 renal
SNB-19 CNS = system: SNB-19 CNS
SF-295 CNS = system: SF-295 CNS
NCI-H460 lung = system: NCI-H460 lung
SK-MEL-28 melanoma = system: SK-MEL-28 melanoma
NCI/ADR-RES ovarian = system: NCI/ADR-RES ovarian
SF-539 CNS = system: SF-539 CNS
MCF7 breast = system: MCF7 breast
NCI-H23 lung = system: NCI-H23 lung
OVCAR-8 ovarian = system: OVCAR-8 ovarian
KM12 colon = system: KM12 colon
UO-31 renal = system: UO-31 renal
BT-549 breast = system: BT-549 breast
HT29 colon = system: HT29 colon
HS 578T breast = system: HS 578T breast
DU-145 prostate = system: DU-145 prostate
TK-10 renal = system: TK-10 renal
HCT-116 colon = system: HCT-116 colon
K-562 leukemia = system: K-562 leukemia
NCI-H522 lung = system: NCI-H522 lung
SK-MEL-2 melanoma = system: SK-MEL-2 melanoma
HL-60(TB) leukemia = system: HL-60(TB) leukemia

SMILES: CCCCC1=CC1(C#N)[N+](=O)[O-] (stereo not given)
- TGI (EKVX NSCLC): > 100 µM
- TGI (NCI-H226 lung): > 100 µM
- TGI (M14 melanoma): > 100 µM
- TGI (IGROV1 ovarian): > 100 µM
- TGI (HCC-2998 colon): > 100 µM
- TGI (SR leukemia): > 100 µM
- TGI (SK-MEL-5 melanoma): > 100 µM
- TGI (HCT-15 colon): > 100 µM
- TGI (MDA-MB-435): > 100 µM
- TGI (MOLT-4 leukemia): 67.5 µM
- TGI (HOP-62 NSCLC): > 100 µM
- TGI (U251 CNS): > 100 µM
- TGI (SW-620 colon): > 100 µM
- TGI (COLO 205 colon): > 100 µM
- TGI (T-47D breast): > 100 µM
- TGI (A549 NSCLC): > 100 µM
- TGI (LOX IMVI melanoma): > 100 µM
- TGI (PC-3 prostate): > 100 µM
- TGI (SN12C renal): > 100 µM
- TGI (MDA-MB-231 breast): > 100 µM
- TGI (CCRF-CEM leukemia): 63.6 µM
- TGI (SNB-75 CNS): > 100 µM
- TGI (OVCAR-5 ovarian): > 100 µM
- TGI (OVCAR-4 ovarian): > 100 µM
- TGI (UACC-257 melanoma): > 100 µM
- TGI (RXF 393 renal): > 100 µM
- TGI (ACHN renal): > 100 µM
- TGI (A498 renal): > 100 µM
- TGI (SK-OV-3 ovarian): > 100 µM
- TGI (RPMI-8226 leukemia): > 100 µM
- TGI (HOP-92 NSCLC): > 100 µM
- TGI (786-0 renal): > 100 µM
- TGI (UACC-62 melanoma): > 100 µM
- TGI (MALME-3M melanoma): > 100 µM
- TGI (OVCAR-3 ovarian): > 100 µM
- TGI (SF-268 CNS): > 100 µM
- TGI (CAKI-1 renal): > 100 µM
- TGI (SNB-19 CNS): > 100 µM
- TGI (SF-295 CNS): > 100 µM
- TGI (NCI-H460 lung): > 100 µM
- TGI (SK-MEL-28 melanoma): > 100 µM
- TGI (NCI/ADR-RES ovarian): > 100 µM
- TGI (SF-539 CNS): > 100 µM
- TGI (MCF7 breast): > 100 µM
- TGI (NCI-H23 lung): > 100 µM
- TGI (OVCAR-8 ovarian): > 100 µM
- TGI (KM12 colon): > 100 µM
- TGI (UO-31 renal): > 100 µM
- TGI (BT-549 breast): > 100 µM
- TGI (HT29 colon): > 100 µM
- TGI (HS 578T breast): > 100 µM
- TGI (DU-145 prostate): > 100 µM
- TGI (TK-10 renal): > 100 µM
- TGI (HCT-116 colon): > 100 µM
- TGI (K-562 leukemia): 66.6 µM
- TGI (NCI-H522 lung): > 100 µM

SMILES: C(=C\c1nc2ccccc2s1)/c1ccc(N2CCOCC2)s1
- GI50 (EKVX NSCLC): 30.1 µM
- TGI (EKVX NSCLC): > 100 µM
- GI50 (NCI-H226 lung): 43.3 µM
- TGI (NCI-H226 lung): > 100 µM
- GI50 (M14 melanoma): > 100 µM
- TGI (M14 melanoma): > 100 µM
- GI50 (IGROV1 ovarian): 58.3 µM
- TGI (IGROV1 ovarian): > 100 µM
- GI50 (SR leukemia): 58.9 µM
- TGI (SR leukemia): > 100 µM
- GI50 (SK-MEL-5 melanoma): 21.8 µM
- TGI (SK-MEL-5 melanoma): > 100 µM
- GI50 (HCT-15 colon): 17.1 µM
- TGI (HCT-15 colon): > 100 µM
- GI50 (MDA-MB-435): > 100 µM
- TGI (MDA-MB-435): > 100 µM
- GI50 (MOLT-4 leukemia): > 100 µM
- TGI (MOLT-4 leukemia): > 100 µM
- GI50 (HOP-62 NSCLC): 45.5 µM
- TGI (HOP-62 NSCLC): > 100 µM
- GI50 (U251 CNS): 44.8 µM
- TGI (U251 CNS): > 100 µM
- GI50 (SW-620 colon): > 100 µM
- TGI (SW-620 colon): > 100 µM
- GI50 (COLO 205 colon): > 100 µM
- TGI (COLO 205 colon): > 100 µM
- GI50 (T-47D breast): 71 µM
- TGI (T-47D breast): > 100 µM
- GI50 (A549 NSCLC): 31.8 µM
- TGI (A549 NSCLC): > 100 µM
- GI50 (LOX IMVI melanoma): 38.4 µM
- TGI (LOX IMVI melanoma): > 100 µM
- GI50 (PC-3 prostate): 33.7 µM
- TGI (PC-3 prostate): > 100 µM
- GI50 (SN12C renal): 43.3 µM
- TGI (SN12C renal): > 100 µM
- GI50 (MDA-MB-231 breast): > 100 µM
- TGI (MDA-MB-231 breast): > 100 µM
- GI50 (CCRF-CEM leukemia): 55.7 µM
- TGI (CCRF-CEM leukemia): > 100 µM
- GI50 (SNB-75 CNS): 31.6 µM
- TGI (SNB-75 CNS): > 100 µM
- GI50 (OVCAR-5 ovarian): 66.9 µM
- TGI (OVCAR-5 ovarian): > 100 µM
- GI50 (OVCAR-4 ovarian): 33.7 µM
- TGI (OVCAR-4 ovarian): > 100 µM
- GI50 (UACC-257 melanoma): 51.3 µM
- TGI (UACC-257 melanoma): > 100 µM
- GI50 (RXF 393 renal): 31.3 µM
- TGI (RXF 393 renal): > 100 µM
- GI50 (ACHN renal): 33.4 µM
- TGI (ACHN renal): > 100 µM
- GI50 (A498 renal): > 100 µM
- TGI (A498 renal): > 100 µM
- GI50 (SK-OV-3 ovarian): 90.7 µM
- TGI (SK-OV-3 ovarian): > 100 µM
- GI50 (RPMI-8226 leukemia): 25.6 µM
- TGI (RPMI-8226 leukemia): > 100 µM
- GI50 (HOP-92 NSCLC): 35.7 µM
- TGI (HOP-92 NSCLC): 95.3 µM
- GI50 (786-0 renal): 33.7 µM
- TGI (786-0 renal): > 100 µM
- GI50 (UACC-62 melanoma): 7.94 µM
- TGI (UACC-62 melanoma): > 100 µM
- GI50 (MALME-3M melanoma): 72 µM
- TGI (MALME-3M melanoma): > 100 µM
- GI50 (OVCAR-3 ovarian): 61.7 µM
- TGI (OVCAR-3 ovarian): > 100 µM
- GI50 (SF-268 CNS): 44 µM
- TGI (SF-268 CNS): > 100 µM
- GI50 (CAKI-1 renal): > 100 µM
- TGI (CAKI-1 renal): > 100 µM
- GI50 (SNB-19 CNS): 51.4 µM
- TGI (SNB-19 CNS): > 100 µM
- GI50 (SF-295 CNS): 24.2 µM
- TGI (SF-295 CNS): 95.4 µM
- GI50 (NCI-H460 lung): 51.3 µM
- TGI (NCI-H460 lung): > 100 µM
- GI50 (SK-MEL-28 melanoma): > 100 µM
- TGI (SK-MEL-28 melanoma): > 100 µM
- GI50 (NCI/ADR-RES ovarian): 37.1 µM
- TGI (NCI/ADR-RES ovarian): > 100 µM
- GI50 (SF-539 CNS): 53.1 µM
- TGI (SF-539 CNS): > 100 µM
- GI50 (MCF7 breast): 75 µM
- TGI (MCF7 breast): > 100 µM
- GI50 (NCI-H23 lung): 80.9 µM
- TGI (NCI-H23 lung): > 100 µM
- GI50 (OVCAR-8 ovarian): 35.5 µM
- TGI (OVCAR-8 ovarian): > 100 µM
- GI50 (SK-MEL-2 melanoma): 63.8 µM
- TGI (SK-MEL-2 melanoma): > 100 µM
- GI50 (KM12 colon): 93.8 µM
- TGI (KM12 colon): > 100 µM
- GI50 (UO-31 renal): 80.5 µM
- TGI (UO-31 renal): > 100 µM
- GI50 (BT-549 breast): 34.6 µM
- TGI (BT-549 breast): > 100 µM
- GI50 (HT29 colon): 20.8 µM
- TGI (HT29 colon): > 100 µM
- GI50 (HL-60(TB) leukemia): > 100 µM
- TGI (HL-60(TB) leukemia): > 100 µM
- GI50 (HS 578T breast): 37 µM
- TGI (HS 578T breast): > 100 µM
- GI50 (DU-145 prostate): 48.8 µM
- TGI (DU-145 prostate): > 100 µM
- GI50 (TK-10 renal): 48.4 µM
- TGI (TK-10 renal): > 100 µM
- GI50 (HCT-116 colon): 59.9 µM
- TGI (HCT-116 colon): > 100 µM
- GI50 (K-562 leukemia): > 100 µM
- TGI (K-562 leukemia): > 100 µM
- GI50 (NCI-H522 lung): 49.2 µM
- TGI (NCI-H522 lung): > 100 µM
